The text below walks through data of patent publication US20230174571A1, “METHOD OF TREATING SHIP1-MEDIATED DISEASES USING PELOROL DERIVATIVES” (Zebrapeutics Inc., priority 2020, published 2023).

The test system of test [1] is LPS-induced TNFα. Description: Mouse endotoxemia model: serum TNFα after i.p. LPS. Particulars: 1 h. It is filed as in vivo. Here is the method: Mouse Endotoxemia Model. Groups of 6-8 week old BALB/c SHIP1+/+ and SHIP1−/−mice were intraperitoneally injected with either 1 or 5 mg/kg of LPS with or without co-administration of 1 mg/kg of IL10. Blood was drawn 1 hour later by cardiac puncture for determination of plasma cytokine levels by ELISA. ELISA kits were purchased from BD Biosciences (Mississauga, ON) for TNFα.
A role for STAT3 in mediating IL10 inhibition of TNFα in vivo was first described by Takeda et al (Takeda et al., 1999). […] This implies that a protein other than STAT3 might contribute to IL10 action. […] Presently, the ability of IL10 to inhibit LPS-induced inflammatory cytokine/chemokine expression in vivo is shown (FIG. 1A) in SHIP1^+/+ and SHIP1^−/− mice, and found IL10 inhibited TNFα in SHIP1^+/+ but not SHIP1^−/− mice. It was previously shown that SHIP1 phosphatase activity is allosterically stimulated by its product PI(3,4)P2 (Ong et al., 2007). […] Presently, it is shown that compound I-1 inhibits LPS-induced TNFα in SHIP1^+/+ but not SHIP1^−/− mice, showing that these compounds can mimic anti-inflammatory properties of IL10 and is indeed specific for SHIP1 (FIG. 1B).
Data represent means of *p<0.05, **p<0.01 when compared with LPS-alone-stimulated mice, ns=not significant. […] Fractions were collected every 5 min for measurement of TNFα levels Data are representative of two independent experiments.

Test [2] concerns the target T1, Clover-SHIP1 and mRuby2-STAT3 (Mus musculus, UniProt Q9ES52).
T1 construct: expressed in transfected cells; host or cells: J17 (SHIP1-/- mouse macrophage line), lentiviral transduction
Description: Acceptor photobleaching FRET analysis. The format is cell-based. The note with it: J17 SHIP1−/− cells expressing Clover-SHIP1/mRuby2-STAT3; 1 minute; 100 ng/ml IL10, IL6 or 20 μM I-2. How it is done: Acceptor Photobleaching FRET analysis. J17 cells expressing Clover-SHIP1 and/or mRuby2-STAT3 were seeded at 50×10^4 cells per well in 8-well Ibidi p-Slides (Ibidi GmbH, Martinsried, Germany). After overnight incubation, cells were serum-starved with Mac media containing 1% serum for 3 hours before media replacement with Leibovitz's (L-15) media (Invitrogen, Burlington, ON) supplemented with 1% serum, 10 μM β-mercaptoethanol, 150 μM monothioglycolate and 1 mM L-glutamine for confocal microscopy imaging. Cells were imaged on a Leica SP8X on DMi8 confocal microscope system with a 63×/1.3 Gly HC PL APO CS2 objective using a white light laser line with 488 nm for donor excitement and 555 nm for acceptor excitement. Photobleaching FRET analysis was performed by measuring Clover-SHIP1 donor fluorescence intensity before and after bleaching the acceptor, mRuby2-STAT3, within a field of cells ‘region of interest’ (ROI), at 100% laser intensity for 60 frames. Acceptor photobleaching was performed first in resting cells then at 1 minute (±5 seconds) following ‘mock’ stimulation with L-15 media, or L-15 media containing 100 ng/ml IL10, IL6 or 20 μM compound I-2. Donor and acceptor fluorescence intensity of individual cells within the bleached ROI was quantified before and after bleaching. Percentage FRET efficiency was calculated as % FRETeff=100×(Dpost−Dpre)/Dpost where Dpre and Dpost represent Clover-SHIP1 donor fluorescence intensity before and after bleaching, respectively.

T1 sequence (Q9ES52 whole entry): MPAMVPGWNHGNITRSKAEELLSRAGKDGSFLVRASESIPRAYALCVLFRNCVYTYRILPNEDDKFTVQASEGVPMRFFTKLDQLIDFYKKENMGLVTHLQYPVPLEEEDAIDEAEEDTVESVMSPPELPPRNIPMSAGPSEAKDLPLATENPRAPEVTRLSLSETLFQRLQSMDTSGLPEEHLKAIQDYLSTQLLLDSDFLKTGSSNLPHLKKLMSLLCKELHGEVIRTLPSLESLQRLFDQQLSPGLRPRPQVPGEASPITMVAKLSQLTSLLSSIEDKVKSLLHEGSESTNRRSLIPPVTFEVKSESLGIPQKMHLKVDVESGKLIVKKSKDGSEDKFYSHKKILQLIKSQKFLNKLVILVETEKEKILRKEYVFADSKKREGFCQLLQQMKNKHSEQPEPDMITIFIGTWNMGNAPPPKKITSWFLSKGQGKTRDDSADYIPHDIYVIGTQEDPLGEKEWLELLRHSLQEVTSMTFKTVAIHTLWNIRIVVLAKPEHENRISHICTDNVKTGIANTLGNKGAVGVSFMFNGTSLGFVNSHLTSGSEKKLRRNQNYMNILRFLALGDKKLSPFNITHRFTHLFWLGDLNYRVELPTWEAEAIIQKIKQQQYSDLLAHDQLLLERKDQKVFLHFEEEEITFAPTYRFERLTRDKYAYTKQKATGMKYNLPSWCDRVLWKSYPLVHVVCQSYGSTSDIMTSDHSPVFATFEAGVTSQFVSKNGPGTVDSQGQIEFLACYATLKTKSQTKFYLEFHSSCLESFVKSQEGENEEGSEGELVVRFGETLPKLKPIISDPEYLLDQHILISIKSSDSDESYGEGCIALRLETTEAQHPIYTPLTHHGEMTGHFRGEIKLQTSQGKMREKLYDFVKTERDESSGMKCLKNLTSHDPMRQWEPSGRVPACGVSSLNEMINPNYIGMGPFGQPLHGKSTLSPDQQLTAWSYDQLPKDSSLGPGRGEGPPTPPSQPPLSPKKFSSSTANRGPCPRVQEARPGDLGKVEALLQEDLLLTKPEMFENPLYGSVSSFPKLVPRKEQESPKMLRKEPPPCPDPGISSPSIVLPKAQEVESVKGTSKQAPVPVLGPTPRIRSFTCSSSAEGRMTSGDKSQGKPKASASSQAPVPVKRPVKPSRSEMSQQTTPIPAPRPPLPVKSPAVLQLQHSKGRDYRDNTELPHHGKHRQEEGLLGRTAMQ
T1 sequence (P42227 whole entry partner): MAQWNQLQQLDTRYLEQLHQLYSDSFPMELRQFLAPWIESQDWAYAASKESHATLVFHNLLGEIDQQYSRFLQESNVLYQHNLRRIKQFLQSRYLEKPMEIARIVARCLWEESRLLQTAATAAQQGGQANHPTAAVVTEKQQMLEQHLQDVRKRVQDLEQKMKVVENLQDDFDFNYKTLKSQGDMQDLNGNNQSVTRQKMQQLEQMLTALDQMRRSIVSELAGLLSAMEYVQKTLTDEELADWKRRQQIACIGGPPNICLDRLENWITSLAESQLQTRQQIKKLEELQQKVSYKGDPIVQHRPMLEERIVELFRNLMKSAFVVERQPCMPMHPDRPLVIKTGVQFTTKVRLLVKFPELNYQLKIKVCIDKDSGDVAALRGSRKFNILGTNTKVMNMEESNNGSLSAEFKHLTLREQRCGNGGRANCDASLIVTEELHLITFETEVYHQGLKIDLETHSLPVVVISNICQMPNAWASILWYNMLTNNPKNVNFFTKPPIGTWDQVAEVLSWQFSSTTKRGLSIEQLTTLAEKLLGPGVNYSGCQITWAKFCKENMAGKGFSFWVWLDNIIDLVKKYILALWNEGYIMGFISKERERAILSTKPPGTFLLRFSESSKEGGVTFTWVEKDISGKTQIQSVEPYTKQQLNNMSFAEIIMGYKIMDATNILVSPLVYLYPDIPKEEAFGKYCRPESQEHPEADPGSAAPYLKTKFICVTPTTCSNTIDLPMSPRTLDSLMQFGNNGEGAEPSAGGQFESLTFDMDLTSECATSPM

For `Cc1cc(O)cc2c1C1(C)CCC3C(C)(C)CCCC3(C)C1C2` (stereo not drawn) [Compound I-1], the results for the “LPS-induced TNFα (serum)” value in test [1] (SHIP1+/+ mice) and in test [1] (SHIP1−/− mice) were “inhibits” and “not”, respectively.
Regarding `CC12CCC3C(C)(C)C(N)CCC3(C)C1Cc1cc(O)cc(O)c12` (stereo not drawn) [Compound I-2], the “Clover-mRuby2 FRET signal” value in test [2] is reported as “increases”.
“IL10: anti-inflammatory cytokine interleukin-10”: the results for the “LPS-induced TNFα (serum)” value in test [1] (SHIP1+/+ mice) and in test [1] (SHIP1−/− mice) were “inhibited” and “not”, respectively. Moreover, in test [2], the “Clover-mRuby2 FRET signal” value is listed as “increases”.
